Results reported in the NIST ThermoML archive (doi:10.1021/je0342163).

Experiment: wn = mass fraction of the nth substance listed

CC(F)(F)F [1,1,1-trifluoroethane] + FCC(F)(F)F
Settings	surface tension liquid-gas [mN/m]
256.91 K, w1 = 0.7511	10.69
257.03 K, w1 = 0.263	12.6
257.14 K, w1 = 0.5656	11.49
258.79 K, w1 = 0.7508	10.37
258.87 K, w1 = 0.2627	12.39
260.95 K, w1 = 0.565	10.86
261 K, w1 = 0.7503	10.13
262.96 K, w1 = 0.75	9.8
263.05 K, w1 = 0.5646	10.49
264.97 K, w1 = 0.2618	11.46
264.97 K, w1 = 0.7496	9.615
265.07 K, w1 = 0.5643	10.39
266.84 K, w1 = 0.564	10.02
267.09 K, w1 = 0.7491	9.245
268.62 K, w1 = 0.7488	9.17
268.83 K, w1 = 0.2611	10.94
268.92 K, w1 = 0.5636	9.81
270.52 K, w1 = 0.5633	9.46
270.6 K, w1 = 0.7484	8.84
271.15 K, w1 = 0.2607	10.62
273.07 K, w1 = 0.5628	9.14
273.2 K, w1 = 0.2604	10.39
273.23 K, w1 = 0.7478	8.49
274.99 K, w1 = 0.5625	8.825
275.4 K, w1 = 0.7473	8.26
275.43 K, w1 = 0.26	10.06
277.04 K, w1 = 0.2597	9.845
277.27 K, w1 = 0.562	8.575
278.99 K, w1 = 0.5617	8.35
279.15 K, w1 = 0.2593	9.5
279.35 K, w1 = 0.7463	7.755
281.43 K, w1 = 0.2589	9.23
281.48 K, w1 = 0.5612	8
281.54 K, w1 = 0.7458	7.46
282.89 K, w1 = 0.2586	9.01
283.35 K, w1 = 0.5608	7.755
283.39 K, w1 = 0.7453	7.25
285.2 K, w1 = 0.5604	7.465
285.24 K, w1 = 0.2581	8.695
285.45 K, w1 = 0.7448	6.985
287.35 K, w1 = 0.5599	7.295
287.39 K, w1 = 0.7443	6.725
287.4 K, w1 = 0.2577	8.415
289.05 K, w1 = 0.7438	6.5
289.29 K, w1 = 0.5595	7.115
289.31 K, w1 = 0.2573	8.23
291.17 K, w1 = 0.7432	6.23
291.2 K, w1 = 0.5591	6.82
291.37 K, w1 = 0.2569	8.03
293.21 K, w1 = 0.2565	7.725
293.45 K, w1 = 0.2564	7.57
293.49 K, w1 = 0.5585	6.47
293.71 K, w1 = 0.7425	5.82
295.16 K, w1 = 0.5582	6.13
295.56 K, w1 = 0.7419	5.58
295.58 K, w1 = 0.256	7.285
297.38 K, w1 = 0.2556	7.06
297.49 K, w1 = 0.7413	5.375
297.52 K, w1 = 0.5576	5.875
299.41 K, w1 = 0.7407	5.14
299.51 K, w1 = 0.5571	5.72
299.53 K, w1 = 0.2552	6.855
301.41 K, w1 = 0.7401	4.89
301.53 K, w1 = 0.2547	6.585
302.95 K, w1 = 0.5563	5.335
303.65 K, w1 = 0.7394	4.63
303.66 K, w1 = 0.2542	6.325
305.21 K, w1 = 0.5557	5.055
305.38 K, w1 = 0.7388	4.425
305.56 K, w1 = 0.2538	6.13
307.4 K, w1 = 0.5552	4.755
307.46 K, w1 = 0.2534	5.835
307.74 K, w1 = 0.738	4.17
309.3 K, w1 = 0.5547	4.56
309.6 K, w1 = 0.2529	5.585
309.65 K, w1 = 0.7373	3.97
311.25 K, w1 = 0.2525	5.385
311.41 K, w1 = 0.5541	4.29
311.44 K, w1 = 0.7367	3.755
313.47 K, w1 = 0.736	3.5
313.55 K, w1 = 0.252	5.095
313.61 K, w1 = 0.5536	4.03
315.3 K, w1 = 0.5531	3.825
315.54 K, w1 = 0.7352	3.3
315.59 K, w1 = 0.2515	4.85
317.36 K, w1 = 0.2511	4.66
317.41 K, w1 = 0.5525	3.605
317.57 K, w1 = 0.7345	3.11
319.33 K, w1 = 0.552	3.415
319.39 K, w1 = 0.7338	2.875
319.66 K, w1 = 0.2506	4.41
321.23 K, w1 = 0.7331	2.685
321.33 K, w1 = 0.5515	3.18
322.01 K, w1 = 0.25	4.12
323.26 K, w1 = 0.2497	4
323.33 K, w1 = 0.7323	2.44
323.42 K, w1 = 0.5509	2.925
325.17 K, w1 = 0.5505	2.75
325.28 K, w1 = 0.7315	2.25
325.69 K, w1 = 0.2492	3.67
327.33 K, w1 = 0.2488	3.545
327.36 K, w1 = 0.7306	2.065
327.38 K, w1 = 0.5498	2.53
329.42 K, w1 = 0.7298	1.81
329.44 K, w1 = 0.5493	2.32
